According to patent US20060148030A1, “Nuclear receptor err y 3” (FUJISAWA PHARMACEUTICAL CO., LTD, priority 2002, published 2006):

B1: ERRγ3: novel ERRγ isoform, nuclear receptor protein of 396 amino acids (SEQ ID NO: 2) lacking part of the DNA binding domain (protein, listed as Homo sapiens)
chain: MSNKDRHIDSSCSSFIKTEPSSPASLTDSVNHHSPGGSSDASGSYSSTMNGHQNGLDSPPLYPSAPILGGSGPVRKLYDDCSSTIVEDPQTKCEYMLNSMPKRLCLVCGDIASGYHYGVASCEACKAFFKRTIQGVRLDRVRGGRQKYKRRIDAENSPYLNPQLAQPAKKPYNKIVSHLLVAEPEKIYAMPDPTVPDSDIKALTTLCDLADRELVVIIGWAKHIPGFSTLSLADQMSLLQSAWMEILILGVVYRSLSFEDELVYADDYIMDEDQSKLAGLLDLNNAILQLVKKYKSMKLEKEEFVTLKAIALANSDSMHIEDVEAVQKLQDVLHEALQDYEAGQHMEDPRRAGKMLMTLPLLRQTSTKAVQHFYNIKLEGKVPMHKLFLEMLEAKV

Columns and labels:
[1] = biological target: T1, ERα (Homo sapiens, UniProt P03372); test: Reporter gene assay, ERRγ3 or ERRγ2 coexisted with ERα in CV-1 cells; format: cell-based; settings: for enhancement of the transcriptional activation function of ERα: absence of 4-hydroxytamoxifen
T1 construct: expressed in transfected cells; host or cells: CV-1 (African green monkey kidney)
T1 sequence (P03372 1-595): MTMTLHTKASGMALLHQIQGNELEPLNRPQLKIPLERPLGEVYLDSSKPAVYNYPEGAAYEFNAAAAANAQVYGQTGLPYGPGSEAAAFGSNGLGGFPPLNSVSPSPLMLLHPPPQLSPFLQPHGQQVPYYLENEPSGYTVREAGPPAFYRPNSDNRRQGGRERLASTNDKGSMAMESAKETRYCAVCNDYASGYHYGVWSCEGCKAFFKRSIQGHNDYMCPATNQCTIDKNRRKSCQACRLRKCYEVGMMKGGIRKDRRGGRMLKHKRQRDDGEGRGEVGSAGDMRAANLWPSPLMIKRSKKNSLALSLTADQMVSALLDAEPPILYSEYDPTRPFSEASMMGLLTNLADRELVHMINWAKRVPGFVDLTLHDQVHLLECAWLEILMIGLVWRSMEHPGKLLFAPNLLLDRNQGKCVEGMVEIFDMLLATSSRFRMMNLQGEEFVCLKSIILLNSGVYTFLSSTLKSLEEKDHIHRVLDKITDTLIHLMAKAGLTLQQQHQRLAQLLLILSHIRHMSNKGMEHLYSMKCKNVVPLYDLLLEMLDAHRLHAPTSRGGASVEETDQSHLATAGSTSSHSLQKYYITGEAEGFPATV
Protocol: The reporter gene assay was performed using CV-1 cells (African green monkey kidney-derived cell line) as hosts. Host cells were transfected with luciferase reporter plasmids and expression plasmids for ERRγ3, ERRγ2, or both. They were then exposed to 4-hydroxytamoxifen at different concentrations (0, 10^−10 to −10^−5 M) for 24 hours, whereupon luciferase activity within the cells was measured.
Transfection was performed as follows: CV-1 cells were suspended at 2×10^5 cells/2.5 ml in DMEM medium supplemented with 10% fetal bovine serum, 2000 U/l of penicillin G, and 100 mg/l streptomycin. These cells were seeded to a 6-well plate at 2.5 ml/well, and cultured for 18 to 24 hours in a CO2 incubator at 37° C. in the presence of 5% CO2. 1 μg of each of the transcription factor expression plasmid, the luciferase reporter plasmid, and another luciferase reporter plasmid for normalizing the measured value (pRL-TK), were dissolved in Opti-MEM (Gibco BRL) to total of 150 μl. 7 μl of the cell transfection reagent LipofectAMINE 2000 (Gibco BRL) was diluted in 143 μl of Opti-MEM, and this was added to the mixture drop by drop while stirring. The mixture was incubated for 20 minutes.
The LipofectAMINE-DNA mixture was diluted in 1.5 ml of Opti-MEM, and added to cells that had been twice washed with 1 ml of PBS(−). The cells were cultured for four hours. The transfection reagent was removed from the culture, and 200 μl of trypsin/EDTA was added to the cells, which were then incubated at 37° C. for five minutes. […] of DMEM was added to suspend the cells, which were transferred to a centrifuge tube, and centrifuged for three minutes at 1000 rpm. After centrifugation, the cells were resuspended in DMEM to a concentration of 1.6×10^4 cells/100 μl, and 100 μl samples were seeded to a 96-well plate. When evaluating agents, a two-fold concentrated solution was made by pre-diluting a 1000 times concentrated agent DMSO solution with culture medium. 50 μl of the solution was mixed with 50 μl of a cell suspension at 1.6×10^4 cells/50 μl, and the culture was incubated in a CO2 incubator at 37° C. and 5% CO2 for 24 hours.
Luciferase activity was measured using the Dual-Luciferase™ Reporter Assay System (Promega). The culture supernatant was removed from each well of the 96-well plate and washed once with 100 μl of PBS(−). 20 μl of ×1 PLB (Passive Lysis Buffer) was added, and the mixture was incubated at room temperature for 15 minutes, and then stored at −20° C. in the freezer until use. […] The protocol for measurement was as follows: 50 μl of Luciferase Assay Reagent II was added to each well, stirred for 0.3 seconds and measured for one second. […] of Stop&Glo™ Reagent was then added, stirred for 0.3 seconds, and measured for one second. […] Average values and standard errors were calculated from triplicate samples.
To confirm whether or not ERRγ3 can regulate the transcription-controlling function of nuclear receptors other than ERRγ2, ERRγ3's function of regulating the transcription-controlling activity of nuclear receptors related to ERRγ (ERα, ERβ, and TR) was evaluated using a reporter gene assay. […] In addition to 4-hydroxytamoxifen, the cells were also contacted with 10^−5 M of (R)-estradiol in experiments related to ERα and ERβ, and 10^−5 M of thyroxine in the experiment related to TR.
The transfected cells were contacted with varying concentrations of 4-hydroxytamoxifen in the absence of […] or presence of 10^−7 M of β-estradiol.

[2] = biological target: T2, ERβ (Homo sapiens, UniProt Q92731); test: Reporter gene assay, ERRγ3 coexisted with ERβ in CV-1 cells; format: cell-based
T2 construct: expressed in transfected cells; host or cells: CV-1 (African green monkey kidney)

[3] = biological target: T3, ERRγ1 (Homo sapiens, UniProt P62508); settings: stated as known property; cited from earlier work
T3 sequence (P62508 1-435 isoform P62508-2): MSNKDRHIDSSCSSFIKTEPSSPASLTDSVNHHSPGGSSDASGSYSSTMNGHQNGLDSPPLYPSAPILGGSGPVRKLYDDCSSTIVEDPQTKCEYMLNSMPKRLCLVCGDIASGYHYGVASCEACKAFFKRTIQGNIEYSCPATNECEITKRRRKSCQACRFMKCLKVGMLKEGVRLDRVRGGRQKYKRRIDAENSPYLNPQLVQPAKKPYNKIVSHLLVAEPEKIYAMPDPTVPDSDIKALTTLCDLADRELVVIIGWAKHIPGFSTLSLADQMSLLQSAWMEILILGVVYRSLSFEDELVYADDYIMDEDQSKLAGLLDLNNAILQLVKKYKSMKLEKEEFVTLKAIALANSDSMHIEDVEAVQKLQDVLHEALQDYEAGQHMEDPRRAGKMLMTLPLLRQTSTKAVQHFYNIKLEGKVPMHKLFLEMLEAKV

T2 sequence (Q92731 whole entry): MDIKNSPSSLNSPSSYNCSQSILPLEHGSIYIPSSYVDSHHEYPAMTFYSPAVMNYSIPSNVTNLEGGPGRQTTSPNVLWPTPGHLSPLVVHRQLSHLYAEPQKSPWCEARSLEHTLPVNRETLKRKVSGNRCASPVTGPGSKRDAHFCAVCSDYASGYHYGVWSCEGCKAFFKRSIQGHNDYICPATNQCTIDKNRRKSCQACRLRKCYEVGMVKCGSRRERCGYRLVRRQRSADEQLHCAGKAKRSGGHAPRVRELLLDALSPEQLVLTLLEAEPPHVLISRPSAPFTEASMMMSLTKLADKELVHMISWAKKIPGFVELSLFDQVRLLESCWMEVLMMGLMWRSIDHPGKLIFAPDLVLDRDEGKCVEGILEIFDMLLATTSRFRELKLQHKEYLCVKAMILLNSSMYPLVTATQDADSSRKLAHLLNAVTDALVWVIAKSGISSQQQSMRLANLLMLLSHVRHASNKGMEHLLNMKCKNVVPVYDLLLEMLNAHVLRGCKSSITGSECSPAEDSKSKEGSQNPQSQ

Molecule | effect of 4-hydroxytamoxifen on the function of ERRγ3 on ERα ([1]; in the presence of the ligand, 10^−5 M (R)-estradiol, CV-1 cells) | effect of 4-hydroxytamoxifen on the transcription enhancing function of ERRγ3 on ERα ([1]; β-estradiol absent or 10^−7 M, 4-hydroxytamoxifen at high concentrations, FIGS. 19-20) | effect of 4-hydroxytamoxifen on the enhancing function of ERRγ3 on ERβ ([2]; 10^−5 M (R)-estradiol present) | binding to ERRγ1 [3] | function enhancement of the transcription-controlling activity of ERα ([1]; ERRγ3 with ERα, 10^−5 M (R)-estradiol, CV-1 cells, FIG. 16) | enhancement of the transcriptional activation function of ERα ([1]; absence of β-estradiol, FIG. 19) | enhancement of the transcriptional activation function of ERα ([1]; presence of 10^−7 M β-estradiol, FIG. 20) | function enhancement of the transcription-controlling activity of ERβ ([2]; ERRγ3 with ERβ, 10^−5 M (R)-estradiol, FIG. 17)
4-hydroxytamoxifen [reference compound] | increased dependent on the concentration of 4-hydroxytamoxifen | reduced in the presence of 4-hydroxytamoxifen at high concentrations | no function-enhancing effect | capable of binding |  |  |  | 
B1 |  |  |  |  | 13-74% | 64% | 18% | 600-650%
